Earlier results as cited in patent US11576886B2, “Constructs comprising fatty acids” (POLYREM LIMITED, priority 2017, dated 2023).

Tested on: Wnt/β-catenin signalling

O=C(CCCN1CCC(O)(c2ccc(Cl)cc2)CC1)c1ccc(F)cc1 [Haloperidol]
Wnt/β-catenin signalling: increase Wnt/β-catenin signalling

Cc1nc2n(c(=O)c1CCN1CCC(c3noc4cc(F)ccc34)CC1)CCCC2 [Risperidone]
Wnt/β-catenin signalling: increase Wnt/β-catenin signalling

CNCCC(Oc1ccc(C(F)(F)F)cc1)c1ccccc1 (centres unmarked) [Fluoxetine]
Wnt/β-catenin signalling: increase Wnt/β-catenin signalling

COCCCC/C(=N\OCCN)c1ccc(C(F)(F)F)cc1 [Fluvoxamine]
Wnt/β-catenin signalling: increase Wnt/β-catenin signalling

COc1ccc(C(CN(C)C)C2(O)CCCCC2)cc1 (centres unmarked) [Venlafaxine]
Wnt/β-catenin signalling: increase Wnt/β-catenin signalling
